Measurements: patent US20240351986A1, “UREA COMPOUND CONTAINING 2-HETEROAROMATIC RING SUBSTITUTION, PREPARATION METHOD THEREFOR AND USE THEREOF” (SHANGHAI INSTITUTE OF MATERIA MEDICA, CHINESE ACADEMY OF …, priority 2021, published 2024)
Where two headings read alike, the source gives them in different places.

Columns and labels:
[1] = biological target: T1, Recombinant human CDK9/cyclin T1 (Homo sapiens, UniProt P50750); assay: CDK9 enzyme inhibitory activity (ADP-Glo kinase assay); type: biochemical; settings: for inhibition at 0.01 µM / inhibition at 0.1 µM: CDK9 enzyme activity, average of two independent repeats; for inhibition at 0.01 µM: compound 10 nM, read-out: Inhibition rate at different concentrations (%) 10 nM; for inhibition at 0.1 µM: compound 100 nM, read-out: Inhibition rate at different concentrations (%) 100 nM; for IC50: Table 2, read-out: CDK9/CycT1 IC50
T1 construct: purchased Carna bioscience 04-110
T1 sequence (P50750 whole entry): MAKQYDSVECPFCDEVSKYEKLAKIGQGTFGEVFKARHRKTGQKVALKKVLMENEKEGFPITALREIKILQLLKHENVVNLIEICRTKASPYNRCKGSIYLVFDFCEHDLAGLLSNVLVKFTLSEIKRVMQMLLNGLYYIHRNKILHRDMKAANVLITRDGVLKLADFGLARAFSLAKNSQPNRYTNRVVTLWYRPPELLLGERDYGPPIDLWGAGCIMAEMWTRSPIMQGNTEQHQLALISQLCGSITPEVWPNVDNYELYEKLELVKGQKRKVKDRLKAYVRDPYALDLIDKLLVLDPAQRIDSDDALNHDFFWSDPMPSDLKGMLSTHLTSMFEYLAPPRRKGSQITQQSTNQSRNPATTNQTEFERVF
T1 sequence (O60563 whole entry partner): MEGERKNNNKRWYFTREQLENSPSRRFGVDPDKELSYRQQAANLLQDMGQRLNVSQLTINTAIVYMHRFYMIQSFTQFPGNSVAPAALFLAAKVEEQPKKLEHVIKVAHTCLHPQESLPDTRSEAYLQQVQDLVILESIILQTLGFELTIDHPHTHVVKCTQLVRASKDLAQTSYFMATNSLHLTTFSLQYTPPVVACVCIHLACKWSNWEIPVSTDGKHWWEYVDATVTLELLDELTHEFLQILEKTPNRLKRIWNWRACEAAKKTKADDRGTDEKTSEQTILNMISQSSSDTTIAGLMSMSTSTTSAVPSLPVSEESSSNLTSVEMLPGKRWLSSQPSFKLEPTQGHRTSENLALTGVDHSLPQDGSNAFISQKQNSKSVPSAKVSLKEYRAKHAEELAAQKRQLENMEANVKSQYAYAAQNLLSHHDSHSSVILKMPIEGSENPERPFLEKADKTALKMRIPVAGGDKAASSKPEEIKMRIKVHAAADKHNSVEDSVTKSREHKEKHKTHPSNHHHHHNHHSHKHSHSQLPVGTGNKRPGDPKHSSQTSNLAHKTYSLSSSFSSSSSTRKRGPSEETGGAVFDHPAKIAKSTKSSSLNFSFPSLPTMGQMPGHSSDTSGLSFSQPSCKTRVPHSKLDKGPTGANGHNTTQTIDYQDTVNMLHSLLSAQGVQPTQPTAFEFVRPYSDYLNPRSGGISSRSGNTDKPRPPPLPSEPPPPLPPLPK

[2] = biological target: CDK1/cyclin B (Homo sapiens, UniProt P06493); assay: CDK1 enzyme activity inhibition; type: biochemical; settings: for inhibition at 0.01 µM: compound 10 nM, read-out: CDK1/Cyc B inhibition rate % 10 nM; for inhibition at 0.1 µM: compound 100 nM, read-out: CDK1/Cyc B inhibition rate % 100 nM
Chain of CDK1/cyclin B (P06493 whole entry, species assumed): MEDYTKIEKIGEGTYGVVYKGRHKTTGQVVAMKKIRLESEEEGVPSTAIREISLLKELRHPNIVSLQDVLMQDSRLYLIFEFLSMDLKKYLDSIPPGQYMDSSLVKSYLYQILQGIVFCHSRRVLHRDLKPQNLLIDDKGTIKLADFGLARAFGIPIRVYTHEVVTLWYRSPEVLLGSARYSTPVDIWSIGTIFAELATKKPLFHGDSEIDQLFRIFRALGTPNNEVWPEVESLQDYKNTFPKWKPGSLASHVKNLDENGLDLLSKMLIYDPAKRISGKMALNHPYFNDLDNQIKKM
Chain of CDK1/cyclin B (P14635 whole entry partner, species assumed): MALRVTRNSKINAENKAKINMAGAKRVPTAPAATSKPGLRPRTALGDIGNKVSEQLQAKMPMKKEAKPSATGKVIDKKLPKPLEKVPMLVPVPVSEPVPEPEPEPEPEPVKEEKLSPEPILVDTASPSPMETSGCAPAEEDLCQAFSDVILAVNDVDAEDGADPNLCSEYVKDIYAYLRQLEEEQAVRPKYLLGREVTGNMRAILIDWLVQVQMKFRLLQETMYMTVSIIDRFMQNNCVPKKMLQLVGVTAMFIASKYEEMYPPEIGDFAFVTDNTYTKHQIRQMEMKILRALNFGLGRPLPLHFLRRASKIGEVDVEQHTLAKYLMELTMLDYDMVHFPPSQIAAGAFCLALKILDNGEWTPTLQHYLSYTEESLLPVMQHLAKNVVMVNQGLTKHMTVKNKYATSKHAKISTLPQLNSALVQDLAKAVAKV
Experimental: (§1) CDK1,4,6,7 enzyme (CDK1/cyclin B, CDK4/cyclin D1, CDK6/cyclin D1, CDK7/cyclin H) activity was measured using a 5 μL enzyme system (50 mM HEPES, 10 mM MgCl2, 1 mM EGTA, 2 mM DTT and 0.0100 Tween 20, appropriate enzyme) either. A mixture of 2.5 μL of compound, 2.5 µL of substrate and ATP (final concentration of substrate 50 nM, final concentration of ATP 200 μM) was incubated at room temperature in the dark for 60 minutes. Then 5 μL EDTA stop solution diluted in 1× detection buffer (final concentration 6 mM) was added to each well, then an antibody diluted in 1× detection buffer (final concentration 2 nM) was added to incubate for 1 hour at room temperature in the dark, and then the corresponding enzyme activity inhibition rate or IC50 was calculated after measurement.

[3] = biological target: CDK4/cyclin D1 (Homo sapiens, UniProt P11802); assay: CDK4 enzyme activity inhibition; type: biochemical; settings: for inhibition at 0.01 µM: compound 10 nM, read-out: CDK4/Cyc D1 inhibition rate % 10 nM; for inhibition at 0.1 µM: compound 100 nM, read-out: CDK4/Cyc D1 inhibition rate % 100 nM
Chain of CDK4/cyclin D1 (P11802 whole entry, species assumed): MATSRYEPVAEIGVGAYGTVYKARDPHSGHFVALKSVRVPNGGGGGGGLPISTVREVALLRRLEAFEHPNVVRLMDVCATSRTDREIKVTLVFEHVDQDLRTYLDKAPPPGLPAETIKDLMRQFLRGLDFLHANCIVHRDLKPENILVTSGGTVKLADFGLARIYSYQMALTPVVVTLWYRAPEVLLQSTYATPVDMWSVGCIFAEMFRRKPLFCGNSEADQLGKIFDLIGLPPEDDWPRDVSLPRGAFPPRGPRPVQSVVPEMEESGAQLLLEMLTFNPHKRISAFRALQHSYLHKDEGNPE
Chain of CDK4/cyclin D1 (P24385 whole entry partner, species assumed): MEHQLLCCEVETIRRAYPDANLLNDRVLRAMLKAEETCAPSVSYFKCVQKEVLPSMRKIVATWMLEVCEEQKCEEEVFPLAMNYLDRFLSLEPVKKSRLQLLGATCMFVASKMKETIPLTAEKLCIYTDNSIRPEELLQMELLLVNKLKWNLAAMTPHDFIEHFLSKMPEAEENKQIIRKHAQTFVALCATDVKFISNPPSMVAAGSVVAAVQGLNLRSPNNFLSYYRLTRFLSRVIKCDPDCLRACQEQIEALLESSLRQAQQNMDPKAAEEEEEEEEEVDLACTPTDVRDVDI
Experimental: as §1

[4] = biological target: CDK6/cyclin D1 (Homo sapiens, UniProt Q00534); assay: CDK6 enzyme activity inhibition; type: biochemical; settings: for inhibition at 0.01 µM: compound 10 nM, read-out: CDK6/Cyc D1 inhibition rate % 10 nM; for inhibition at 0.1 µM: compound 100 nM, read-out: CDK6/Cyc D1 inhibition rate % 100 nM
Chain of CDK6/cyclin D1 (Q00534 whole entry, species assumed): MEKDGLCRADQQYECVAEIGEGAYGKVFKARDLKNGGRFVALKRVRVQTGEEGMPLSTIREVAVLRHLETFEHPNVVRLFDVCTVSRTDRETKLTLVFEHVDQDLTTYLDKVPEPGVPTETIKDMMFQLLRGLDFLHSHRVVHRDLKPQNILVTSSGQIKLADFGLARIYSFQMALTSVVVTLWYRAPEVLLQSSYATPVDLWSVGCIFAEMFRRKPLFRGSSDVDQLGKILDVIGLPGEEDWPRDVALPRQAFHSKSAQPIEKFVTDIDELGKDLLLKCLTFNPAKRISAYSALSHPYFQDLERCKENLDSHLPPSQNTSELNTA
Chain of CDK6/cyclin D1 (P24385 whole entry partner, species assumed): as the sequence (P24385 whole entry partner, species assumed) above
Experimental: as §1

[5] = biological target: CDK7/cyclin H (Homo sapiens, UniProt P50613); assay: CDK7 enzyme activity inhibition; type: biochemical; settings: for inhibition at 0.01 µM: compound 10 nM, read-out: CDK7/Cyc H inhibition rate % 10 nM; for inhibition at 0.1 µM: compound 100 nM, read-out: CDK7/Cyc H inhibition rate % 100 nM
Chain of CDK7/cyclin H (P50613 whole entry, species assumed): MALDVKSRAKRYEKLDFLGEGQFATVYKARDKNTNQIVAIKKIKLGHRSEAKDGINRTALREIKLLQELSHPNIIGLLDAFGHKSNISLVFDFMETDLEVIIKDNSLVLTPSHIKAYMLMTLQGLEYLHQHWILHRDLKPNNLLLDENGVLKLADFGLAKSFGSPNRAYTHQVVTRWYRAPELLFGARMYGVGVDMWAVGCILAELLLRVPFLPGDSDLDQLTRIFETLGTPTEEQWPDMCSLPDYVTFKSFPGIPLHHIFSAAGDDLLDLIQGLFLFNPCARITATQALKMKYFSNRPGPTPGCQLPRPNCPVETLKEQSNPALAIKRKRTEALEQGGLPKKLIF
Chain of CDK7/cyclin H (P51946 whole entry partner, species assumed): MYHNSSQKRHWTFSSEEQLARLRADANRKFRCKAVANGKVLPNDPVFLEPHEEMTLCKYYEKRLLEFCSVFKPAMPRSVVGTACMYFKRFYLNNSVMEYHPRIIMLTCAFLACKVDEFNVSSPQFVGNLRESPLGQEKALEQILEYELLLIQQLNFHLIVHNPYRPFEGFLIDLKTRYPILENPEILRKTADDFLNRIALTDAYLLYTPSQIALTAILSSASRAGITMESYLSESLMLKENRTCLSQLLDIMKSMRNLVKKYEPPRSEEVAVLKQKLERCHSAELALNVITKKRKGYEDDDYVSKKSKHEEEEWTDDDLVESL
Experimental: as §1

[6] = tested on: WSU-DLCL2 cells; assay: Tumor cell proliferation inhibition in vitro (CCK-8); type: cell-based; settings: Homo sapiens, WSUDLCL2, 72 hours
Experimental: Experimental method: WSU-DLCL2 cells in good condition were seeded in a 96-well plate at 20,000/well. The test compound was gradient diluted with PBS and then added to the wells. After incubating with the cells for 72 hours, 10 μl of CCK-8 reagent was added to each well. After further incubation, the absorbance was measured at 460 nm and the 4-parameter curve fitting of Softmax Pro software was used to calculate the proliferation inhibition IC50 of the test compound.

[7] = tested on: U2932; assay: Tumor cell proliferation inhibition in vitro; type: cell-based; settings: Homo sapiens
[8] = tested on: Pfeiffer; assay: Tumor cell proliferation inhibition in vitro; type: cell-based; settings: Homo sapiens, Pfeiffer; proliferation
[9] = tested on: Will2; assay: Tumor cell proliferation inhibition in vitro; type: cell-based
[10] = tested on: 422; assay: Tumor cell proliferation inhibition in vitro; type: cell-based; settings: proliferation
[11] = PK parameters in mice after iv and po administration (LC-MS/MS of plasma); type: in vivo; settings: for AUC(0-t) / half-life / AUC(0-inf) / MRT inf / Cmax / Tmax: mouse, plasma; for AUC(0-inf): read-out: AUCINF_obs; for MRT inf: read-out: MRTINF_obs; for F: oral bioavailability
Experimental: The relevant pharmacokinetic parameters were calculated to examine the oral bioavailability and pharmacokinetic properties of the compound in mice.

[12] = Identification of metabolites in mouse plasma; type: in vivo; settings: original form and metabolites of compound 47 in mouse plasma

COCCN[C@H]1CC[C@H](NC(=O)Nc2cc(-c3ccc(F)cc3OC)ccn2)CC1 [Example 3, 1-(4-(4-fluoro-2-methoxyphenyl)pyridin-2-yl)-3-((1r,4r)-4-((2-methoxyethyl)amino)cyclohexyl) urea]
inhibition at 0.01 µM [1]: 50.2% | inhibition at 0.1 µM [1]: 96.7% | IC50 [1]: 6.2 nM | inhibition at 0.01 µM [2]: -1.9% | inhibition at 0.1 µM [2]: -1.4% | inhibition at 0.01 µM [3]: 7.2% | inhibition at 0.1 µM [3]: 25.1% | inhibition at 0.01 µM [4]: 9.9% | inhibition at 0.1 µM [4]: 18.9% | inhibition at 0.01 µM [5]: -24.5% | inhibition at 0.1 µM [5]: -2.6%

CC(=O)N[C@H]1CC[C@@H](NC(=O)Nc2cc(-c3cnn4c3CC(C)(C)C4)c(Cl)cn2)CC1 [Example 67, N-((1s,4s)-4-(3-(5-chloro-4-(5,5-dimethyl-5,6-dihydro-4H-pyrrolo[1,2-b]pyrazol-3-yl)pyridin-2-yl)ureido)cyclohexyl)acetamide]
inhibition at 0.01 µM [1]: 68% | inhibition at 0.1 µM [1]: 85% | IC50 [1]: 5.3 nM | inhibition at 0.01 µM [2]: 4.7% | inhibition at 0.1 µM [2]: 47.4% | inhibition at 0.01 µM [3]: 9.5% | inhibition at 0.1 µM [3]: 18% | inhibition at 0.01 µM [4]: 4% | inhibition at 0.1 µM [4]: 19.1% | inhibition at 0.01 µM [5]: -4% | inhibition at 0.1 µM [5]: 44%

CC(=O)N[C@@H]1CCC[C@H](C(=O)Nc2cc(-c3cnn4c3CC(C)(C)C4)c(Cl)cn2)C1 [AZD4573, reference compound]
IC50 [6]: < 3 nM | IC50 [7]: 2.32 nM | IC50 [8]: 2.43 nM | IC50 [9]: 5.75 nM | IC50 [10]: 1.81 nM | CL_obs ([11]; i.v.): 119 mL/min/kg | Vss_obs ([11]; i.v.): 0.82 L/kg | AUC(0-t) ([11]; iv, 3 mg/kg): 416 ng·h/mL | half-life ([11]; iv, 3 mg/kg): 6.6 min | AUC(0-inf) ([11]; iv, 3 mg/kg, i.v.): 419 ng·h/mL | MRT inf ([11]; iv, 3 mg/kg, i.v.): 6.6 min | AUC(0-t) ([11]; po): 73.2 ng·h/mL | Cmax ([11]; po): 219 ng/mL | Tmax ([11]; po): 15 min | half-life ([11]; po, 10 mg/kg): 16.2 min | AUC(0-inf) ([11]; po): 73.6 ng·h/mL | MRT inf ([11]; po): 25.2 min | F [11]: 5.28%

COc1cc(F)ccc1-c1ccnc(NC(=O)N[C@H]2CC[C@H](N)CC2)c1 [Example 2, 1-((1r,4r)-4-aminocyclohexyl)-3-(4-(4-fluoro-2-methoxyphenyl)pyridin-2-yl)urea]
inhibition at 0.01 µM [1]: 57% | inhibition at 0.1 µM [1]: 88% | IC50 [1]: 5.7 nM | inhibition at 0.01 µM [2]: 1.3% | inhibition at 0.1 µM [2]: 7.8% | inhibition at 0.01 µM [3]: -7% | inhibition at 0.1 µM [3]: 1.8% | inhibition at 0.01 µM [4]: 2.6% | inhibition at 0.1 µM [4]: 13.8% | inhibition at 0.01 µM [5]: -6.6% | inhibition at 0.1 µM [5]: -3.8%

COCCN[C@H]1CC[C@H](NC(=O)Nc2cc(-c3cnn4c3CC(C)(C)C4)c(Cl)cn2)CC1 [Example 46, 1-(5-chloro-4-(5,5-dimethyl-5,6-dihydro-4H-pyrrolo[1,2-b]pyrazol-3-yl)pyridin-2-yl)-3-((1r,4r)-4-((2-methoxy)amino)cyclohexyl)urea]
inhibition at 0.01 µM [1]: 55% | inhibition at 0.1 µM [1]: 94% | IC50 [1]: 12 nM | inhibition at 0.01 µM [2]: -5.1% | inhibition at 0.1 µM [2]: 11.6% | inhibition at 0.01 µM [3]: 11.1% | inhibition at 0.1 µM [3]: 20.9% | inhibition at 0.01 µM [4]: 6.2% | inhibition at 0.1 µM [4]: 21.6% | inhibition at 0.01 µM [5]: 24% | inhibition at 0.1 µM [5]: 59% | plasma clearance rates compared with AZD4573 [11]: lower | CL_obs ([11]; i.v.): 68.6 mL/min/kg | Vss_obs ([11]; i.v.): 3.469 L/kg | AUC(0-t) ([11]; iv, 3 mg/kg): 728 ng·h/mL | half-life ([11]; iv, 3 mg/kg): 125 min | AUC(0-inf) ([11]; iv, 3 mg/kg, i.v.): 729 ng·h/mL | MRT inf ([11]; iv, 3 mg/kg, i.v.): 50.4 min | AUC(0-t) ([11]; po): 601 ng·h/mL | Cmax ([11]; po): 382 ng/mL | Tmax ([11]; po): 60 min | half-life ([11]; po, 10 mg/kg): 143 min | AUC(0-inf) ([11]; po): 602 ng·h/mL | MRT inf ([11]; po): 102 min | F [11]: 24.8%

CC(=O)N[C@H]1CC[C@H](NC(=O)Nc2cc(-c3cnn4c3CC(C)(C)C4)c(Cl)cn2)CC1 [Example M0]
Area (254 nm), value in parentheses, iv ([12]; iv): (532) | MS Area iv ([12]; iv): 62967 | MS Area po ([12]; po): 811

CC(=O)NC1CCCC(NC(=O)Nc2cc(-c3cnn4c3CC(C)(C)C4)c(Cl)cn2)C1 (centres unmarked) [Example 79, N-(3-(3-(5-chloro-4-(5,5-dimethyl-5,6-dihydro-4H-pyrrolo[1,2-b]pyrazol-3-yl)pyridin-2-yl)ureido)cyclohexyl)acetamide]
inhibition at 0.01 µM [1]: 53% | inhibition at 0.1 µM [1]: 87%

COCCNC1CCC(NC(=O)Nc2cc(-c3cnn4c3CC(C)(C)C4)c(Cl)cn2)CC1 (centres unmarked) [Example 66, 1-(5-chloro-4-(5,5-dimethyl-5,6-dihydro-4H-pyrrolo[1,2-b]pyrazol-3-yl)pyridin-2-yl)-3-((1s,4s)-4-((2-methoxyethyl)amino)cyclohexyl)urea]
inhibition at 0.01 µM [1]: 57% | inhibition at 0.1 µM [1]: 69%

[2H]C([2H])([2H])C(=O)NC1CCC(NC(=O)Nc2cc(-c3cnn4c3CC(C)(C)C4)c(Cl)cn2)CC1 (centres unmarked) [Example 54, N-((1r,4r)-4-(3-(5-chloro-4-(5,5-dimethyl-5,6-dihydro-4H-pyrrolo[1,2-b]pyrazol-3-yl)pyridin-2-yl)ureido)cyclohexyl)acetamide-2,2,2-d3]
inhibition at 0.01 µM [1]: 70.8% | inhibition at 0.1 µM [1]: 97.4%

CC(=O)NC1CCC(NC(=O)Nc2cc(-n3cnc(C4CC4)c3)c(Cl)cn2)CC1 (centres unmarked) [Example 87, N-((1r,4r)-4-(3-(5-chloro-4-(4-cyclopropyl-1H-imidazol-1-yl)pyridin-2-yl)ureido)cyclohexyl)acetamide]
inhibition at 0.01 µM [1]: 43.8% | inhibition at 0.1 µM [1]: 75.3%

CC1(C)Cc2c(-c3cc(NC(=O)NCCCN)ncc3Cl)cnn2C1 [Example 72, 1-(3-aminopropyl)-3-(5-chloro-4-(5,5-dimethyl-5,6-dihydro-4H-pyrrolo [1,2-b]pyrazol-3-yl)pyridin-2-yl)urea]
inhibition at 0.01 µM [1]: 45% | inhibition at 0.1 µM [1]: 69%

CC(=O)NC1CCC(NC(=O)Nc2cc(-c3cnn(C)c3C)c(Cl)cn2)CC1 (centres unmarked) [Example 43, N-((1r,4r)-4-(3-(5-chloro-4-(1,5-dimethyl-1H-pyrazol-4-yl)pyridin-2-yl)ureido)cyclohexyl)acetamide]
inhibition at 0.01 µM [1]: 49% | inhibition at 0.1 µM [1]: 87.3%

COc1cc(F)ccc1-c1ccnc(NC(=O)NC2CCCNCC2)c1 (centres unmarked) [Example 37, 1-(azepan-4-yl)-3-(4-(4-fluoro-2-methoxyphenyl)pyridin-2-yl)urea]
inhibition at 0.01 µM [1]: 10% | inhibition at 0.1 µM [1]: 60%

CC1(C)Cc2c(-c3cc(NC(=O)NC4CCC(N5CCOCC5)CC4)ncc3Cl)cnn2C1 (centres unmarked) [Example 92, 1-(5-chloro-4-(5,5-dimethyl-5,6-dihydro-4H-pyrrolo[1,2-b]pyrazol-3-yl)pyridin-2-yl)-3-((1r, 4r)-4-morpholinylcyclohexyl)urea]
inhibition at 0.01 µM [1]: 58.9% | inhibition at 0.1 µM [1]: 93.7%
